Patent US20090076050A1, “SYNERGISTIC TUMOR-KILLING EFFECT OF RADIATION AND BERBERINE COMBINED TREATMENT IN LUNG CANCER” (CHUNG SHAN MEDICAL U., priority 2007, published 2009)

Assays:
[1] = test system: A549 cells; assay: mitochondrial membrane potential by JC-1 flow cytometry; type: cell-based, human; conditions: 1.0, 2.5, 5.0 and 10 μM berberine combined with irradiation (6 Gy), 24 h
Protocol: Berberine has been reported to induce cell death in several cancer cells via mitochondrial disruption (Lin J P, et al. World J Gastroenterol 2006; 12:21-28.). Therefore, mitochondrial membrane potential was next measured with JC-1. Mitochondria membrane potential (Δ Ψm), the lipophilic cationic probe fluorochrome JC-1 (Invitrogen) was used. […] After a treatment of radiation (6 Gy) for 24 h in the absence or presence of 1.0-10 μM berberine, cells were rinsed with DMEM, and JC-1 (5 μmol/L) was loaded. Determination of Δ Ψm was also carried out with a FACScan Flow Cytometer. […] It has been reported that depolarized mitochondria would move into autophagic vacuoles in response to appropriate stimulation; thus, mitochondria dysfunction may be a point of overlap between apoptotic and autophagocytic processes (Bras M, et al. Biochemistry (Mosc) 2005; 70:231-39). […] On the other hand, beclin-1 siRNA and 3-MA (autophagy inhibitor) blocked the cell death induced by 5.0 μM berberine combined with 6 Gy IR (p<0.001). As a consequence, berberine sensitized A549 cells to IR damage via inducing autophagic cell death.

[2] = test system: LLC cells; assay: MTT cell viability, berberine combined with IR, LLC cells; type: cell-based; conditions: LLC cells (data not shown)
Text: The data were depicted in FIG. 1C after normalization.

[3] = test system: beclin-1; assay: immunohistochemistry of beclin-1 in xenograft; type: in vivo, C57BL/6 mice; conditions: co-treatment groups (berberine + IR)
Protocol: (§1) The application of the additive cytotoxicity of IR combined with berberine in cancer treatment was further evidenced in an in vivo Lewis lung carcinoma (LLC) model in mice (Camphausen K, et al. Cancer Res 2001; 61:2207-11). Male C57BL/6 mice aged 4-6 weeks (National Taiwan University Animal Center, Taiwan) were used. To form a tumor xenograft, Lewis lung cells (2×10^6) were injected s.c. into the right hind limb. Animals were randomized into six groups: control, irradiation (IR) alone, berberine (1.0, 2.0 mg/kg) alone, and IR combined with berberine (1.0, 2.0 mg/kg). For tumor irradiation, mice were immobilized in a customized harness that exposed the right hind leg while shielding the remainder of the body by 3.5 cm of lead. Mice were exposed to a single dose of 8 Gy. […] To obtain tumor growth curves, three orthogonal tumor diameters were measured every 4-day intervals with a vernier caliper, and the mean values were calculated. […] Primary tumor growth delay was measured by calipers in two dimensions, and the volumes were calculated according to the formula: tumor volume=(width) 2×length×0.52. […] The tumor volume at the primary site of each group was measured before treatment, and the average tumor volume was designated as T0. When the animals were sacrificed at the end of experiment, the xenografts were removed, and the tumor volume was determined and presented as fold of T0. […]

[4] = test system: Lewis lung carcinoma (LLC); assay: Lewis lung carcinoma (LLC) tumor xenograft growth in mice; type: in vivo, C57BL/6 mice; conditions: for tumor volume relative to that before the treatment: LLC in C57BL/6 mice, p<0.001
Protocol: The application of the additive cytotoxicity of IR combined with berberine in cancer treatment was further evidenced in an in vivo Lewis lung carcinoma (LLC) model in mice (Camphausen K, et al. Cancer Res 2001; 61:2207-11). Male C57BL/6 mice aged 4-6 weeks (National Taiwan University Animal Center, Taiwan) were used. To form a tumor xenograft, Lewis lung cells (2×10^6) were injected s.c. into the right hind limb. Animals were randomized into six groups: control, irradiation (IR) alone, berberine (1.0, 2.0 mg/kg) alone, and IR combined with berberine (1.0, 2.0 mg/kg). For tumor irradiation, mice were immobilized in a customized harness that exposed the right hind leg while shielding the remainder of the body by 3.5 cm of lead. Mice were exposed to a single dose of 8 Gy. Berberine was supplemented (1.0, 2.0 mg/kg, i.p.) to animals 1 day before the radiation exposure, and then twice a week for 4 weeks. To obtain tumor growth curves, three orthogonal tumor diameters were measured every 4-day intervals with a vernier caliper, and the mean values were calculated. The animals were killed (n=5 per group) at the indicated time points, and the primary tumor was dissected and examined. Primary tumor growth delay was measured by calipers in two dimensions, and the volumes were calculated according to the formula: tumor volume=(width) 2×length×0.52. LLC cells were injected s.c. into the right thighs of C57BL/6 mice 10 days before the IR therapy. The animals were randomized into six treatment groups: untreated, 8 Gy radiation in one dose, berberine alone (1.0, 2.0 mg/kg i.p., twice weekly), and berberine combined with IR treatment (FIG. 6A). Berberine was supplemented to the indicated groups one day before the IR treatment and continued for 4 weeks. The tumor volume at the primary site of each group was measured before treatment, and the average tumor volume was designated as T0. When the animals were sacrificed at the end of experiment, the xenografts were removed, and the tumor volume was determined and presented as fold of T0. The blood samples were collected for biochemical analysis. […] Berberine at 1.0 and 2.0 mg/kg, as used with IR, has shrunk the tumor volume down to approximately 48% and 22% of that before the treatment (FIG. 6C, p<0.001). Furthermore, immunohistochemistry was performed to detect the level of beclin-1 and bcl-2 proteins in the xenograft. Primary tumors were fixed and then embedded in paraffin. The sections were stained with anti-bcl-2 mouse-monoclonal antibody (1:100, Santa Cruz Biotechnology, Santa Cruz, Calif.) or anti-beclin-1 rabbit polyclonal antiserum (1:50, Santa Cruz Biotechnology, Santa Cruz, Calif.). The sections were then incubated with blocking buffer for 40 min at RT followed by incubation with the primary antibody over night at 4° C. […]

[5] = test system: A549 cells; assay: cell cycle distribution by propidium iodide flow cytometry; type: cell-based, human; conditions: 24 h
Protocol: Flow cytometry was performed by propidium iodide staining (Roche Molecular Biochemical, Indianapolis, USA) according to the manufacturer's instructions. Untreated and treated cells were washed in PBS and fixed in ice-cold ethanol. Fixed cells were pelleted and resuspended in 500 μl of PBS. Then, the cells were stained with propidium iodide and analyzed for cell cycle distribution by flow cytometry with a FACStar caliber (Becton Dickinson) cell sorter. The percentage of each phase was evaluated by Cell-Quest software of the histograms.

[6] = test system: bcl-2; assay: immunohistochemistry of bcl-2 in xenograft; type: in vivo, C57BL/6 mice
Protocol: as §1

[7] = IR (6 Gy) + 5.0 μM berberine, listed as Ber

In the case of `COc1ccc2cc3[n+](cc2c1OC)CCc1cc2c(cc1-3)OCO2` [berberine, Berberine], the “mitochondrial membrane potential (JC-1)” value [1] is reported as “great loss of membrane potential”, the “dose and time dependent synergic-killing effect” value [2] is reported as “also observed” and the “beclin-1 protein expression in xenograft” value [3] is reported as “remarkable increased”. For the same compound, the “tumor volume relative to that before the treatment” value ([4]; berberine 1.0 mg/kg i.p. twice weekly for 4 weeks with IR 8 Gy) was “approximately 48%”, the “tumor volume relative to that before the treatment” value ([4]; berberine 2.0 mg/kg i.p. twice weekly for 4 weeks with IR 8 Gy) was roughly 22% and the “tumor size in tumor growth curves” value ([4]; berberine (1.0, 2.0 mg/kg) combined with IR 8 Gy, LLC in mice (FIG. 6B)) was “considerable reduced size”. The “growth of the xenograft” value ([4]; berberine alone (1.0, 2.0 mg/kg i.p., twice weekly), LLC in mice) was “slowed down”, the G0/G1 ([5]; IR (6 Gy) + 2.5 μM berberine) was 45.5 ± 4.96% and the G2/M ([5]; IR (6 Gy) + 2.5 μM berberine) was 28.8%. The S ([5]; IR (6 Gy) + 2.5 μM berberine) was 20.1 ± 2.26%, the “sub G1” value ([5]; IR (6 Gy) + 2.5 μM berberine) was 5.6 ± 0.18% and the G2/M ([5]; IR (6 Gy) + 2.5 μM berberine, listed as Ber) was 28.8 ± 2.91%. For the same compound, the G0/G1 ([5]; IR (6 Gy) + 5.0 μM berberine) was 36.2 ± 4.15%, the G2/M ([5]; IR (6 Gy) + 5.0 μM berberine) was 40.5% and the S ([5]; IR (6 Gy) + 5.0 μM berberine) was 14.8 ± 2.05%. For the same compound, the “sub G1” value ([5]; IR (6 Gy) + 5.0 μM berberine) was 8.5%, the G2/M [5, 7] was 40.5 ± 4.55% and the “sub G1” value [5, 7] was 8.5 ± 0.22%. For the same compound, the G0/G1 ([5]; IR (6 Gy) + 10 μM berberine) was 33.9 ± 4.01%, the G2/M ([5]; IR (6 Gy) + 10 μM berberine) was 41.7% and the S ([5]; IR (6 Gy) + 10 μM berberine) was 15.5 ± 1.81%. For the same compound, the “sub G1” value ([5]; IR (6 Gy) + 10 μM berberine) was 8.9 ± 0.25%, the G2/M ([5]; IR (6 Gy) + 10 μM berberine, listed as Ber) was 41.7 ± 3.91% and the G0/G1 ([5]; IR (6 Gy) + 20 μM berberine) was 37.2 ± 4.27%. For the same compound, the G2/M ([5]; IR (6 Gy) + 20 μM berberine) was 30.5 ± 3.18%, the S ([5]; IR (6 Gy) + 20 μM berberine) was 16.7 ± 2.33% and the “sub G1” value ([5]; IR (6 Gy) + 20 μM berberine) was 15.6 ± 1.26%. The “bcl-2 protein expression in xenograft” value ([6]; berberine alone groups) was “reduced” and the “bcl-2 protein expression in xenograft” value ([6]; co-treatment groups (berberine + IR)) was “reduced”.
